Reference: patent publication US20260259169A1, “BETA-LACTAMASE SUBSTRATE COMPOUNDS AND ELECTROCHEMICAL DETECTION METHODS USING THEM” (priority 2023, published 2026)

Columns and labels:
IMP-11 = assay: Reactivity with recombinant enzyme, amperometric; format: biochemical; conditions: class B metallo-beta-lactamase, protein; CF3 compound 2.4 mM, HMRZ-86 1.2 mM; 10 minutes at 37° C.
OXA-51 = assay: Reactivity with recombinant enzyme, amperometric; format: biochemical; conditions: class D carbapenemase, protein; CF3 compound 2.4 mM, HMRZ-86 1.2 mM; 10 minutes at 37° C.
OXA-23 = OXA-23 (Acinetobacter baumannii, UniProt Q9L4P2); assay: Reactivity with recombinant enzyme, amperometric; format: biochemical; conditions: class D carbapenemase, protein; CF3 compound 2.4 mM, HMRZ-86 1.2 mM; 10 minutes at 37° C.
CTX-M-8 = assay: Reactivity with recombinant enzyme, amperometric; format: biochemical; conditions: class A ESBL, protein; CF3 compound 2.4 mM, HMRZ-86 1.2 mM; 10 minutes at 37° C.
IMP-18 = assay: Reactivity with recombinant enzyme, amperometric; format: biochemical; conditions: class B metallo-beta-lactamase, protein; CF3 compound 2.4 mM, HMRZ-86 1.2 mM; 10 minutes at 37° C.
[1] = tested on: bacteria strains producing the carbapenemase KPC type; assay: Amperometric detection in blood culture; format: cell-based; conditions: CF3 6.0 mM, HMRZ-86 1.2 mM
Method: The beta-lactamase with group β being CF3 (6.0 mM), as well as the reference HMRZ-86 (1.2 mM) were also tested with blood cultures comprising bacteria strains producing the carbapenemase KPC type, the metallo-beta-lactamase VIM type and the metallo-beta-lactamase NDM type, as well as a blood culture comprising no bacteria strains producing beta-lactamases (negative control ATCC).

KPC-3 = KPC-3 (Klebsiella pneumoniae, UniProt Q9F663, H272Y); assay: Reactivity with recombinant enzyme, amperometric; format: biochemical; conditions: class A carbapenemase, protein; CF3 compound 2.4 mM, HMRZ-86 1.2 mM; 10 minutes at 37° C.
[2] = NMR stability study in relation to a dimethylformamide (DMF) reference; format: physicochemical; conditions: for degradation: DMF reference
Method: More particularly, when the degradation is determined by means of NMR measurements, a first sample comprising the beta-lactamase substrate compound according to the present disclosure and a second sample comprising the reference, e.g. DMF, are heated or cooled to a predefined temperature, after which the NMR measurement is performed on both samples (measurement at time=0). The same measurement is repeated on the samples after a predefined time (time=x), while their temperature is kept constant at the predefined temperature from time=0 to time=x. The difference of the integration of NMR measurement signals of both samples is determined by comparing between time=0 and time=x, thereby allowing to define the degree (percentage) of degradation of the beta-lactamase substrate compound at time=x.
The stability of the beta-lactamase substrate compounds over time at different temperatures was tested the reference HMRZ-86 of example 1 (at 1.2 mM) and the beta-lactamase substrate compound with R being 2-nitro-4-cyano of Example 1 (at 2.4 mM).
The stability was tested by a NMR stability study. The degradation was measured by measuring the evolution of the integration of NMR measurement signals of the molecule in relation to a dimethylformamide (DMF) reference. The stability of the beta-lactamase substrate compound is expressed by the percentage of degradation in function of time.
The stability of all 3 beta-lactamase substrate compounds (R being 4-cyanophenyl, group β being H, CH3 and CF3, respectively), as well as the beta-lactamase having the same group R and a group β according to formula II was tested at 20° C. in DMF as reference.

CTX-M-15 = CTX-M-15 (Escherichia coli, UniProt Q9EXV5); assay: Reactivity with recombinant enzyme, amperometric; format: biochemical; conditions: class A ESBL, protein; CF3 compound 2.4 mM, HMRZ-86 1.2 mM; 10 minutes at 37° C.
IMP-14 = assay: Reactivity with recombinant enzyme, amperometric; format: biochemical; conditions: class B metallo-beta-lactamase, protein; CF3 compound 2.4 mM, HMRZ-86 1.2 mM; 10 minutes at 37° C.
KPC = KPC (Klebsiella pneumoniae, UniProt Q9F663); assay: Amperometric measurement of oxidation current with KPC in TPTZ buffer; format: biochemical; conditions: 30 minutes at 37° C.
Method: A medium comprising 1.2 mM of substrate in a succinate buffer of pH 5.5 was prepared for each of the 8 beta-lactamase substrate compounds (7 inventive ones and the HMRZ-86 reference one).
4 different samples to be analyzed were prepared, each comprising KPC as beta-lactamase in a standard 2,4,6-tri-2-pyridinyl-1,3,5-triazine (TPTZ) buffer but in different concentrations: 239.4, 59.85, 9.975 and 4.985 ng/ml (ng of KPC per mL of TPTZ buffer). The two first concentrations of KPC aim to determine the capacity of the derivative to detect the presence of beta-lactamase whereas the two lowest concentrations aim to address the limit of detection.
Each of the […] (in other words 32 combinations) and incubated for 30 minutes at 37° C. Next, an amperometric measurement was performed on all 32 of the incubated mediums, and the oxidation current was determined. The device used was a Metrohm Dropsens and the electrodes were Metrohm Dropsens SCPE 110 electrodes. The oxidation current is the maximum current value measured between 0.1 V and 0.5 V vs. Ag/AgCl.
To test the impact of the concentration of the beta-lactamase substrate compound on the possibility to detect beta-lactamases, a further medium comprising 2.4 mM of the beta-lactamase substrate compound with R being 2-nitro-4-cyanophenyl was prepared. […] The same four beta-lactamase concentrations as in Example 1 were tested (i.e. the same samples). The incubation and measurement were performed as in Example 1.
A medium comprising 6.0 mM of each substrate in a succinate buffer of pH 5.5 was prepared. 2 different samples to be analyzed were prepared, each comprising KPC as beta-lactamase type in a standard 2,4,6-tri-2-pyridinyl-1,3,5-triazine (TPTZ) buffer, but in different concentrations: 239.4 ng/ml and 59.85 ng/ml, respectively (ng of KPC per mL of TPTZ buffer). Each of the […] was added to each of the 2 mediums (in other words 6 combinations) and incubated for 30 minutes at 37° C. Next, an amperometric measurement was performed on all 6 of the incubated mediums, and the oxidation current was determined. The equipment used was the same as that of Example 1.

KPC-33 = KPC-33 (Klebsiella pneumoniae, UniProt Q9F663, D178Y); assay: Reactivity with recombinant enzyme, amperometric; format: biochemical; conditions: class A carbapenemase, protein; CF3 compound 2.4 mM, HMRZ-86 1.2 mM; 10 minutes at 37° C.
NDM-1 = NDM-1 (Klebsiella pneumoniae, UniProt C7C422); assay: Reactivity with recombinant enzyme, amperometric; format: biochemical; conditions: class B metallo-beta-lactamase, protein; CF3 compound 2.4 mM, HMRZ-86 1.2 mM; 10 minutes at 37° C.
IMP-31 = assay: Reactivity with recombinant enzyme, amperometric; format: biochemical; conditions: class B metallo-beta-lactamase, protein; CF3 compound 2.4 mM, HMRZ-86 1.2 mM; 10 minutes at 37° C.
OXA-143 = assay: Reactivity with recombinant enzyme, amperometric; format: biochemical; conditions: class D carbapenemase, protein; CF3 compound 2.4 mM, HMRZ-86 1.2 mM; 10 minutes at 37° C.

Compound | reactivity (detection) (IMP-11) | reactivity (detection) (OXA-51) | reactivity (detection) (OXA-23) | reactivity (detection) (CTX-M-8) | reactivity (detection) (IMP-18) | detection (oxidation current) [1] | reactivity (detection) (KPC-3) | reactivity (detection) (CTX-M-15) | reactivity (detection) (IMP-14) | reactivity (detection) (KPC-33) | reactivity (detection) (NDM-1) | reactivity (detection) (IMP-31) | reactivity (detection) (OXA-143) | other results
N#Cc1ccc(C=CC2=C(C(=O)O)N3C(=O)C(NC(=O)C(F)(F)F)C3SC2)cc1 (stereo not drawn) [CF3] | Detected | Detected | Detected | Detected | Detected | capable of detecting | Detected | Detected | Detected | Detected | Detected | Detected | Detected | time of first signs of degradation [2]: 1 weeks; detection of the lowest tested concentration of KPC (KPC; 6.0 mM substrate, KPC 59.85 ng/ml): capable to detect; detection of the highest concentration of KPC (KPC; 6.0 mM substrate, KPC 239.4 ng/ml): capable to detect
CC(C)(ON=C(C(=O)N[C@@H]1C(=O)N2C(C(=O)O)=C(C=Cc3ccc([N+](=O)[O-])cc3[N+](=O)[O-])CS[C@H]12)c1csc(N)n1)C(=O)O.O=C(O)C(F)(F)F [HMRZ-86, reference compound] | Detected | Not detected | Not detected | Detected | Detected | capable of detecting | Detected | Detected | Detected | Detected | Detected | Detected | Detected | degradation ([2]; 4° C., after 1 day): over 50%; degradation ([2]; 20° C., after 1 week): ~60%; degradation ([2]; 20° C., after 18 weeks): over 90%; degradation ([2]; 20° C., after 1 day): ~60%; degradation over time ([2]; temperatures between 4° C. and 20° C.): significant degradation over time; detection of the beta-lactamases (oxidation current): KPC concentrations detected (KPC; 1.2 mM substrate, succinate buffer pH 5.5, KPC 239.4, 59.85, 9.975 and 4.985 ng/ml): all 4 concentrations; detection of the beta-lactamase concentration of 9.975 ng/mL (KPC; 1.2 mM substrate, KPC 9.975 ng/mL): could detect
